Test results reported in patent publication US11230549B2, “Quinolino-pyrrolidin-2-one derivative and application thereof” (MEDSHINE DISCOVERY INC., priority 2018, dated 2022).

Columns and labels:
Human-derived ATM kinase = target: T1, Human-derived ATM kinase (Homo sapiens, UniProt Q13315); assay: ATM enzyme activity test (HTRF, phosphorylation of GST-cMyc-p53); format: biochemical
T1 construct: Eurofins (contract laboratory that ran the test)
Experimental: (§1) The compounds of the present disclosure used for experiments are all prepared in-house, and their chemical names and structural formulas are shown in the preparation examples of each compound. The experimental tests were carried out by a UK company Eurofins, and the experimental results were provided by the company. The following experimental processes were also provided by the company.
(§2) Human-derived ATM kinase was incubated in a buffer solution containing 30 nM of GST-cMyc-p53 and Mg/ATP. The concentration of Mg/ATP was determined according to different needs. The reaction was initiated by adding a Mg/ATP complex. After incubating for about 30 minutes at room temperature, a stop solution containing EDTA was added to stop the reaction. Finally, for phosphorylated p53, a detection buffer containing a d2-labeled anti-GST monoclonal antibody and an europium-labeled phosphorylated Ser15 antibody was added. Then time-resolved fluorescence mode was used to read a detection disk, and a homogeneous time-resolved fluorescence (HTRF) signal was obtained by calculating formula HTRF=10000×(Em665 nm/Em620 nm).

[1] = target: T2, Human-derived DNA-PK kinase (Homo sapiens, UniProt P78527); assay: DNA-PK enzyme activity test (HTRF, phosphorylation of GST-cMyc-p53); format: biochemical
T2 construct: Eurofins (contract laboratory that ran the test)
Experimental: as §1
as §2, with “Human-derived DNA-PK” for “Human-derived ATM”, “containing 50” for “containing 30”

[2] = tested on: human lung cancer H446 cell subcutaneous xenograft tumor; assay: In vivo efficacy of ATM inhibitors and etoposide in H446 subcutaneous xenograft model; parameters: species or system female BALB/c nude mouse; settings: etoposide 15 mg/kg IP, ATM inhibitor 5 mg/kg PO; for Tumor volume (mm^3) / Tumor volume (mm^3) (Day 26): Mean ± SEM; for T/C (%) tumor proliferation rate / TGI (%) tumor growth inhibition rate: Day 26; for Tumor volume (mm^3) (Day 26): Day 26 after administration
Experimental: Evaluation of the in vivo efficacy of the test drug ATM inhibitor and etoposide in a BALB/c nude mouse model with human lung cancer H446 cell subcutaneous xenograft tumor via intraperitoneal or oral administration.
5% CO2 culture. Conventional digestion treatment with pancreatin-EDTA for passage was carried out twice a week. When the cell saturation was 80% to 90%, the cells were collected, counted and inoculated.
0.2 mL 5×10^6 of H446 cells (1:1 plus matrigel) were subcutaneously inoculated on the right back of each nude mouse. The grouping and administration were started when the average tumor volume reached 125 mm^3 (Table).
The experimental index was to investigate whether the tumor growth was inhibited, delayed or cured. Tumor diameter was measured twice a week with a vernier caliper. The calculation formula of tumor volume: V=0.5a×b^2, wherein a and b represented the long and short diameters of the tumor, respectively.
Tumor proliferation rate T/C (%): wherein T is the average tumor volume obtained from the last measurement (PG-D26) of the treatment group, and C is the average tumor volume obtained from the last measurement (PG-D26) of the control group.
Mean value and standard error (SEM) of the tumor volume of each group at each time point were included (specific data is shown in tables). […] The comparison between two groups was analyzed by T-test, and the comparison between three or more groups was analyzed by one-way ANOVA. If there was heterogeneity of variance, the Games-Howell test was applied. If there was homogeneity of variance, the Dunnet (2-sided) test was used for analysis.

T1 sequence (Q13315 whole entry): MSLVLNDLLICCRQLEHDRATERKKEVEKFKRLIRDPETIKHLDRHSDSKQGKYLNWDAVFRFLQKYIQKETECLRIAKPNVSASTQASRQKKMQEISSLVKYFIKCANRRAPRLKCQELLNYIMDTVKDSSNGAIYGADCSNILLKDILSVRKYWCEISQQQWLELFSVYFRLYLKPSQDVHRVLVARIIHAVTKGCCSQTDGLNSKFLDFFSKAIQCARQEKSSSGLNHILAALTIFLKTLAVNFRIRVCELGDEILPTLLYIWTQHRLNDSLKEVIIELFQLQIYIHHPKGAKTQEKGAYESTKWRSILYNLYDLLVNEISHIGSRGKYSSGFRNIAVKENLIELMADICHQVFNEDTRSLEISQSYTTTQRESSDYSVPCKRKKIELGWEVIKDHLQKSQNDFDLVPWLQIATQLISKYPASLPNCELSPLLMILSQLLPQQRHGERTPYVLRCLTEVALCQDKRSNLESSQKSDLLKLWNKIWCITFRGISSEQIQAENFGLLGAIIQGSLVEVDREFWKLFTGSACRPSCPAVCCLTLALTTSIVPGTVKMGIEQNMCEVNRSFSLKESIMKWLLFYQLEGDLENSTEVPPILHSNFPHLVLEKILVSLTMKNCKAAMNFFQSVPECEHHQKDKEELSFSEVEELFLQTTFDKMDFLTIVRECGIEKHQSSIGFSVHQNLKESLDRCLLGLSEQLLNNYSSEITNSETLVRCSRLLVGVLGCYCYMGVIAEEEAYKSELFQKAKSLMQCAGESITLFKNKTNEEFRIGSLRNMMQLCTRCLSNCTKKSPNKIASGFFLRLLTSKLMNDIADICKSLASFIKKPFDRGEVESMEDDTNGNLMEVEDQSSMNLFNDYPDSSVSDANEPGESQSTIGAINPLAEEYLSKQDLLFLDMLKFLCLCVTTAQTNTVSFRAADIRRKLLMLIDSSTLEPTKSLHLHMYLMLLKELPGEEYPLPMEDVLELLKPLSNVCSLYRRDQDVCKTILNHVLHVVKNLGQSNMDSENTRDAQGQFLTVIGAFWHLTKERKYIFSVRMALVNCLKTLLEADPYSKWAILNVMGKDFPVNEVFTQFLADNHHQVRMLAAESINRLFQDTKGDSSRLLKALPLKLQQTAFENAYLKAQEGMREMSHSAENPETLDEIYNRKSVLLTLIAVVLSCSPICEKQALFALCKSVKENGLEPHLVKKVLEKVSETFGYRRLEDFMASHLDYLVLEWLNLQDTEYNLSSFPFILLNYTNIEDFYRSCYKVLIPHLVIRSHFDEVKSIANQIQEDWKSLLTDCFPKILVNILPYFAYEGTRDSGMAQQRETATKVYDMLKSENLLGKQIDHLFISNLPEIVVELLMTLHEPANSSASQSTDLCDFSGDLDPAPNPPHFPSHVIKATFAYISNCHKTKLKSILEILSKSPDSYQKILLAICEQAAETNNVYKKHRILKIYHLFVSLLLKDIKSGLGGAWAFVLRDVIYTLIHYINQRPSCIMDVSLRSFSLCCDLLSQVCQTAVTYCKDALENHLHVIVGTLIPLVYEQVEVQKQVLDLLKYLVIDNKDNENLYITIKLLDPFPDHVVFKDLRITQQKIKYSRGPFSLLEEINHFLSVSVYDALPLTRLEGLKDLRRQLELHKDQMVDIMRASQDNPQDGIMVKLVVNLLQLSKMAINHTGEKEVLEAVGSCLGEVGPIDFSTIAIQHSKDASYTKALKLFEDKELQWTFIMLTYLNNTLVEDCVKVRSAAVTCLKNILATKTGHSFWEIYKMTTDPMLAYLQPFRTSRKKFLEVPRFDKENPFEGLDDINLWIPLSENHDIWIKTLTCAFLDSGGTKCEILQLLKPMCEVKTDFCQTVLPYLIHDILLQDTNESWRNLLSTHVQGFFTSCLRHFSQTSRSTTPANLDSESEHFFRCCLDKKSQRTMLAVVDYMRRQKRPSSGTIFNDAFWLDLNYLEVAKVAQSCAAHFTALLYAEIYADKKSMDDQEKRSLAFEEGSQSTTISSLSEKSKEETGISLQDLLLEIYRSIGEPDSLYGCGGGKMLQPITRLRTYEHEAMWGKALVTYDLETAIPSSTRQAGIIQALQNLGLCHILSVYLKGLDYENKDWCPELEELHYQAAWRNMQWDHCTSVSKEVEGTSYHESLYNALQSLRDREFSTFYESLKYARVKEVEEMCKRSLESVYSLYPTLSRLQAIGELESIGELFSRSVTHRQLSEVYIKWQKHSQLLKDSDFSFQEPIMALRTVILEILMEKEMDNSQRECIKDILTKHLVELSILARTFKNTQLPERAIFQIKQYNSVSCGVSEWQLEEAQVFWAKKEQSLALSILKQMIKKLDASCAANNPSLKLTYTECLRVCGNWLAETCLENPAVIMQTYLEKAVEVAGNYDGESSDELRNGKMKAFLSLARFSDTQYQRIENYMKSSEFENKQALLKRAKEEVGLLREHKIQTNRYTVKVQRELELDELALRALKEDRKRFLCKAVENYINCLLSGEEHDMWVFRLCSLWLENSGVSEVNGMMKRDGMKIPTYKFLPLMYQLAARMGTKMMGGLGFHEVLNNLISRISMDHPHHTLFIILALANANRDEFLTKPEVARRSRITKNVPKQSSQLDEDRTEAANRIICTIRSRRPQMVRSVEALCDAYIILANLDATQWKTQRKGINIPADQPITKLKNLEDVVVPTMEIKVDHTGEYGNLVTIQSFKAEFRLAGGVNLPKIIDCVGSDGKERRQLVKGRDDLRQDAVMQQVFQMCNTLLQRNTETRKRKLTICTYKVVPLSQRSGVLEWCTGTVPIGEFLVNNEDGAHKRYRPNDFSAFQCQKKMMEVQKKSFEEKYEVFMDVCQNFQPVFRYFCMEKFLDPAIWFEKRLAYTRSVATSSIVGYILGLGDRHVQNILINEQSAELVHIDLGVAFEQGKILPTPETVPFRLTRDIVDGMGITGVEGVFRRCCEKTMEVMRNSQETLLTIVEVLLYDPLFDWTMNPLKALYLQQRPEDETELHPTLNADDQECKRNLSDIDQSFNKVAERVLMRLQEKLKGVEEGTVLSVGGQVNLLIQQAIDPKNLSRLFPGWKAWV

IC50 (Human-derived ATM kinase) [nM]	IC50 [1] [nM]	SMILES	also measured
1	593	CN(C)CCCOc1ccc(-c2cc3c4c(cnc3cc2F)N(C)C(=O)C42CCOCC2)cn1 [Example 33]	
3	> 1000	O=C1N(C2CC2)c2cnc3cc(F)c(-c4ccc(OCCCN5CCCCC5)nc4)cc3c2C12CCOCC2 [Example 35]	
288	73	CN1C(=O)C2(CCOCC2)c2c1cnc1ccc(-c3cnn(C)c3)cc21 [Example 2]	
0.9	78	CN(C)CCCOc1ccc(-c2ccc3ncc4c(c3c2)C2(CCOCC2)C(=O)N4C)cn1 [Example 1]	
7	509	CC(C)OC(=O)N1CCC2(CC1)C(=O)N(C)c1cnc3ccc(-c4ccc(OCCCN(C)C)nc4)cc3c12 [Example 21]	
1	99	CN(C)CCCOc1ccc(-c2ccc3ncc4c(c3c2)C2(CCC(C)(O)CC2)C(=O)N4C)cn1 (centres unmarked) [Example 27]	
2	561	CN1C(=O)C2(CCOCC2)c2c1cnc1cc(F)c(-c3ccc(OCCCN4CCCCC4)nc3)cc21 [Example 32]	Tumor volume (mm^3) ([2]; Day 0 after administration): 125 ± 7 mm^3; Tumor volume (mm^3) ([2]; Day 3 after administration): 138 ± 6 mm^3; Tumor volume (mm^3) ([2]; Day 7 after administration): 229 ± 10 mm^3; Tumor volume (mm^3) ([2]; Day 10 after administration): 359 ± 36 mm^3; Tumor volume (mm^3) ([2]; Day 14 after administration): 644 ± 83 mm^3; Tumor volume (mm^3) ([2]; Day 17 after administration): 974 ± 129 mm^3; Tumor volume (mm^3) ([2]; Day 21 after administration): 1240 ± 157 mm^3; T/C (%) tumor proliferation rate [2]: 73.86%; TGI (%) tumor growth inhibition rate [2]: 27.36%; Tumor volume (mm^3) (Day 26) [2]: 2054 ± 221 mm^3
0.8	77	COC(=O)N1CCC2(CC1)C(=O)N(C)c1cnc3ccc(-c4ccc(OCCCN(C)C)nc4)cc3c12 [Example 19]	
63	88	COCc1ccc(-c2ccc3ncc4c(c3c2)C2(CCOCC2)C(=O)N4C)cn1 [Example 31]	
1	153	CN(C)CCCOc1ccc(-c2ccc3ncc4c(c3c2)C2(CCC(F)(F)CC2)C(=O)N4C)cn1 [Example 7]	
3	352	CC(=O)N1CCC2(CC1)C(=O)N(C)c1cnc3ccc(-c4ccc(OCCCN(C)C)nc4)cc3c12 [Example 17]	
2	800	CN1C(=O)C2(CCOCC2)c2c1cnc1ccc(-c3ccc(OCCCN(C4CC4)C4CC4)nc3)cc21 [Example 6]	
2	80	CN1C(=O)C2(CCOCC2)c2c1cnc1ccc(-c3ccc(OCCCN4CCCCC4)nc3)cc21 [Example 24]	
2	343	CN(C)CCCOc1ccc(-c2ccc3ncc4c(c3c2)C2(CCN(C(=O)C3CC3)CC2)C(=O)N4C)cn1 [Example 18]	
1	48	CN1C(=O)C2(CCOCC2)c2c1cnc1ccc(-c3ccc(OCCCN4CC[C@H](F)C4)nc3)cc21 [Example 3]	
12	> 1000	CN(C)CCCOc1ccc(-c2cc3c4c(cnc3cc2Cl)N(C)C(=O)C42CCOCC2)cn1 [Example 36]	
2	129	COC(=O)N1CCC2(CC1)C(=O)N(C)c1cnc3ccc(-c4ccc(OCCCN5CCCCC5)nc4)cc3c12 [Example 20]	
2	269	CN(C)CCCOc1ccc(-c2ccc3ncc4c(c3c2)C2(CCOCC2)C(=O)N4C2CC2)cn1 [Example 29]	
2	92	CN1C(=O)C2(CCOCC2)c2c1cnc1ccc(-c3ccc(OCCCN4CCC(F)CC4)nc3)cc21 [Example 5]	
1	62	CN1C(=O)C2(CCOCC2)c2c1cnc1ccc(-c3ccc(OCCCN4CC[C@@H](F)C4)nc3)cc21 [Example 4]	
2	26	CN(C)CCCOc1ccc(-c2ccc3ncc4c(c3c2)C2(CCN(CC(F)F)CC2)C(=O)N4C)cn1 [Example 12]	
		COc1cc([C@@H]2c3cc4c(cc3[C@@H](O[C@@H]3O[C@@H]5CO[C@@H](C)O[C@H]5[C@H](O)[C@H]3O)[C@H]3COC(=O)[C@H]23)OCO4)cc(OC)c1O [Etoposide, etoposide, reference compound]	Tumor volume (mm^3) ([2]; Day 0 after administration): 125 ± 8 mm^3; Tumor volume (mm^3) ([2]; Day 3 after administration): 132 ± 11 mm^3; Tumor volume (mm^3) ([2]; Day 7 after administration): 259 ± 37 mm^3; Tumor volume (mm^3) ([2]; Day 10 after administration): 364 ± 47 mm^3; Tumor volume (mm^3) ([2]; Day 14 after administration): 552 ± 66 mm^3; Tumor volume (mm^3) ([2]; Day 17 after administration): 851 ± 84 mm^3; Tumor volume (mm^3) ([2]; Day 21 after administration): 1021 ± 112 mm^3; T/C (%) tumor proliferation rate [2]: 59.93%; TGI (%) tumor growth inhibition rate [2]: 41.95%; Tumor volume (mm^3) (Day 26) [2]: 1667 ± 193 mm^3
1	92	COC1CCC2(CC1)C(=O)N(C)c1cnc3ccc(-c4ccc(OCCCN(C)C)nc4)cc3c12 (centres unmarked) [Example 25]	
1	76	CN(C)CCCOc1ccc(-c2ccc3ncc4c(c3c2)C2(CCC(O)CC2)C(=O)N4C)cn1 (centres unmarked) [Example 26]	
2	334	CN1C(=O)C2(CCC(C)(O)CC2)c2c1cnc1ccc(-c3ccc(OCCCN4CCCCC4)nc3)cc21 (centres unmarked) [Example 28]	
2	475	O=C1N(C2CC2)c2cnc3ccc(-c4ccc(OCCCN5CCCCC5)nc4)cc3c2C12CCOCC2 [Example 30]	
5	> 1000	CN(C)CCCOc1ccc(-c2cc3c4c(cnc3cc2F)N(C2CC2)C(=O)C42CCOCC2)cn1 [Example 34]	

SMILES	IC50 (Human-derived ATM kinase) [nM]	IC50 [1] [nM]	also measured
CN(C)CCCOc1ccc(-c2ccc3ncc4c(c3c2)C2(CCNCC2)C(=O)N4C)cn1 [Example 8]	3	99	
CN1C(=O)C2(CCN(CC(F)(F)F)CC2)c2c1cnc1ccc(-c3ccc(OCCCN4CCCCC4)nc3)cc21 [Example 14]	3	46	
CN(C)CCCOc1ccc(-c2ccc3ncc4c(c3c2)C2(CCN(C)CC2)C(=O)N4C)cn1 [Example 9]	1	83	
CC(C)N1CCC2(CC1)C(=O)N(C)c1cnc3ccc(-c4ccc(OCCCN5CCCCC5)nc4)cc3c12 [Example 16]	4	204	
CN1C(=O)C2(CCN(C3CC3)CC2)c2c1cnc1ccc(-c3ccc(OCCCN4CCCCC4)nc3)cc21 [Example 23]	0.8	30	
CCN1CCC2(CC1)C(=O)N(C)c1cnc3ccc(-c4ccc(OCCCN(C)C)nc4)cc3c12 [Example 10]	2	80	
CC(C)N1CCC2(CC1)C(=O)N(C)c1cnc3ccc(-c4ccc(OCCCN(C)C)nc4)cc3c12 [Example 15]	2	41	
CN(C)CCCOc1ccc(-c2ccc3ncc4c(c3c2)C2(CCN(C3CC3)CC2)C(=O)N4C)cn1 [Example 22]	1	14	
CCN1CCC2(CC1)C(=O)N(C)c1cnc3ccc(-c4ccc(OCCCN5CCCCC5)nc4)cc3c12 [Example 11]	2	243	
CN(C)CCCOc1ccc(-c2ccc3ncc4c(c3c2)C2(CCN(CC(F)(F)F)CC2)C(=O)N4C)cn1 [Example 13]	4	27	
